# Test results as given in publication PMC7129073 (Clinical Microbiology and Infection, 2015).
# Tests used:
# [1] = system: P. stuartii; assay: Italian survey of severe infections 2003, MIC; assay type: cell-based, Providencia stuartii
# [2] = system: F. necrophorum; assay: E-test, 13 clinical isolates; assay type: cell-based, Fusobacterium necrophorum; details: for MIC50 / MIC90: Fusobacterium necrophorum
# [3] = system: S. marcescens; assay: Italian survey of severe infections 2003, MIC; assay type: cell-based, Serratia marcescens
# [4] = system: Shigella spp.; assay: Disk diffusion, stool isolates Tehran; assay type: cell-based; details: 96 isolates
# [5] = system: E. coli; assay: E-test susceptibility; assay type: cell-based, Escherichia coli
# [6] = system: K. pneumoniae; assay: E-test susceptibility; assay type: cell-based, Klebsiella pneumoniae
# [7] = system: S. pneumoniae; assay type: cell-based, Streptococcus pneumoniae
# [8] = system: Acinetobacter; assay: Disk diffusion; assay type: cell-based; details: 37 isolates selected as resistant to beta-lactams
# [9] = system: S. pneumoniae; assay: MIC of invasive strains, Saint George Hospital 2001–2004; assay type: cell-based, Streptococcus pneumoniae
# [10] = system: M. morganii; assay: Italian survey of severe infections 2003, MIC; assay type: cell-based, Morganella morganii
# [11] = system: nontyphoidal Salmonella; assay: Agar dilution, isolates from chickens 1998–2004; assay type: cell-based, Salmonella spp.; details: Salmonella
# [12] = system: Pseudomonas spp.; assay: MIC; assay type: cell-based
# [13] = system: H. influenzae; assay type: cell-based, Haemophilus influenzae
# [14] = system: Escherichia coli (ECO); assay: Broth microdilution; assay type: cell-based; details: 2001
# [15] = system: Enterobacteriaceae; assay: SMART 2003 Europe, microdilution; assay type: cell-based; details: 1948 isolates
# [16] = system: Escherichia coli; assay: Vitek 2 susceptibility, urine isolates of children; assay type: cell-based
# [17] = system: S. pneumoniae; assay: Broth microdilution; assay type: cell-based, Streptococcus pneumoniae; details: 275 isolates
# [18] = system: E. coli; assay: SMART 2003 Europe, microdilution; assay type: cell-based, Escherichia coli; details: 1106 isolates
# [19] = system: S. aureus; assay: NCCLS broth microdilution, SSTI isolates; assay type: cell-based; details: Staphylococcus aureus
# [20] = system: S. typhimurium (strain SL1344); assay: Cell envelope proteome; assay type: cell-based, Salmonella typhimurium; details: 31.2 ng/ml; control 296 ± 77; mean + 1 SD
# [21] = system: qnrA; assay: qnrA transcription in E. coli transconjugants after quinolone induction; assay type: cell-based, Escherichia coli; details: 0.4 × MIC
# [22] = system: P. aeruginosa strains from CF sputa; assay: O-serotyping; assay type: cell-based, Pseudomonas aeruginosa; details: exposure to 1/2–1/16 MIC (ceftazidime) or 1/2–1/8 MIC (ciprofloxacin)
# [23] = system: P. stuartii; assay: E-test MIC and mutant prevention concentration, qnr transconjugand and mutants; details: Providencia stuartii
# [24] = system: S. pneumoniae (SPN); assay: NCCLS broth microdilution, fluoroquinolones 1999–2004; assay type: cell-based, Streptococcus pneumoniae; details: Streptococcus pneumoniae, read-out: MIC90 during the six years, 1999–2004
# [25] = system: K. pneumoniae; assay: MIC; assay type: cell-based, Klebsiella pneumoniae
# [26] = system: S. enterica serotype Typhimurium; assay: Susceptibility testing of CipR strains from children and exotic pets; assay type: cell-based; details: Salmonella enterica
# [27] = system: Pseudomonas aeruginosa (PA); assay: MIC; assay type: cell-based
# [28] = system: Enterobacter spp; assay: E-test susceptibility; assay type: cell-based
# [29] = system: A. baumannii; assay: Italian survey of severe infections 2003, MIC; assay type: cell-based, Acinetobacter baumannii
# [30] = system: B.cepacia; assay: Italian survey of severe infections 2003, MIC; assay type: cell-based, Burkholderia cepacia
# [31] = system: Nocardia spp.; assay: E-test on Mueller Hinton agar, 81 clinical isolates; assay type: cell-based; details: Nocardia
# [32] = system: Nocardia spp.; assay: Time-kill at peak-serum concentrations, seven strains; assay type: cell-based; details: of seven strains; 24, 72 h
# [33] = system: Klebsiella; assay: SMART 2003 Europe, microdilution; assay type: cell-based, Klebsiella spp.; details: 341 isolates
# [34] = system: inducible Enterobacteriaceae; assay: SMART 2003, intraabdominal isolates; assay type: cell-based
# [35] = system: P.aeruginosa; assay: Italian survey of severe infections 2003, MIC; assay type: cell-based, Pseudomonas aeruginosa
# [36] = system: Gram-negative rods; assay: Microscan MIC, blood culture isolates; assay type: cell-based
# [37] = system: N. farcinica strain; assay: E-test on Mueller-Hinton agar; assay type: cell-based; details: Nocardia farcinica
# [38] = system: P. aeruginosa; assay type: cell-based, Pseudomonas aeruginosa
# [39] = system: K. oxytoca; assay: E-test susceptibility; assay type: cell-based, Klebsiella oxytoca
# [40] = system: PSA; details: background statement, no reference given; cited from earlier work
# [41] = system: viridans group streptococci (VGS); assay: MIC; assay type: cell-based
# [42] = system: Pseudomonas aeruginosa (PSA); assay: Vitek 2 susceptibility, urine isolates of children; assay type: cell-based; details: both departments
# [43] = system: Staphylococcus epidermidis; assay: Broth microdilution and E-test, diabetic foot ulcers; assay type: cell-based; details: 53 isolates
# [44] = system: S. aureus; assay: Italian survey of severe infections 2003, MIC; assay type: cell-based, Staphylococcus aureus
# [45] = system: CoNS; assay: Methicillin resistance, PBSCT patients; assay type: cell-based, Coagulase-negative Staphylococcus
# [46] = system: S. aureus; assay: Methicillin resistance, PBSCT patients; assay type: cell-based, Staphylococcus aureus
# [47] = system: Staphylococcus aureus; assay: Broth microdilution and E-test, diabetic foot ulcers; assay type: cell-based; details: 81 isolates
# [48] = system: Staphylococcus aureus; assay: EARSS Ireland, invasive isolates; assay type: cell-based; details: Jan'99–Jun'04, 4786 isolates
# [49] = system: S. epidermidis; assay: Italian survey of severe infections 2003, MIC; assay type: cell-based, Staphylococcus epidermidis
# [50] = ICU, SRGA breakpoints, tigecycline tentative S ≤2 μg/ml
smiles,measurement,setting,value
CO/N=C(\C(=O)N[C@@H]1C(=O)N2C(C(=O)O)=C(COC(C)=O)CS[C@H]12)c1csc(N)n1 [cefotaxime],resistance,[1],84.5%
same,MIC range,[2],0.016 to 256 µg/mL
same,MIC50,[2],0.016 µg/mL
same,MIC90,[2],0.064 µg/mL
same,resistance,[3],13.2%
same,sensitive,[4],100%
same,Susceptible isolates,[5]; [50],98%
same,Susceptible isolates,[5]; non ICU,99%
same,Susceptible isolates,[6]; ICU,98%
same,Susceptible isolates,[6]; non ICU,100%
same,resistant,[7],0%
same,resistant isolates,[8],75.7%
same,% S,[9],95.2%
same,%R,[9],4.8%
same,resistance,[10],"14,3%"
same,MIC50,[11]; read-out: MIC 50/90,0.12 to 0.25 µg/mL
same,resistant strains,[12],90%
same,resistant,[13],0%
same,susceptible,[14]; NAL-resistant isolates,89.9%
same,susceptible,[14]; NAL-susceptible isolates,99.2%
O=C(O)c1cn(C2CC2)c2cc(N3CCNCC3)c(F)cc2c1=O [ciprofloxacin],per cent susceptible,[15],84%
same,susceptibility rate,[16]; paediatric surgical unit (PSU),96%
same,susceptibility rate,[16]; paediatric units (PU),100%
same,Susceptibility,[17],94.5%
same,per cent susceptible,[18],80%
same,MIC50,[19],0.25 µg/mL
same,sensitive,[4],100%
same,number of proteins detected in 2D gels,[20],153 ± 36
same,increase of qnrA transcription over baseline,[21]; transconjugant from 1960,2.6 times
same,increase of qnrA transcription over baseline,[21]; transconjugant from N5,5.1 times
same,increase of qnrA transcription over baseline,[21]; transconjugant from UAB1,4.3 times
same,change of agglutination type of nine monoagglutinable strains,[22],five out of nine strains
same,MIC,"[23]; ATCC29914, P. stuartii ATCC 29914 RifR",0.03 µg/mL
same,MIC,"[23]; ATCC29914, mutants of ATCC 29914 RifR, SCV, median",3 µg/mL
same,MIC,[23]; TCPs 123 (qnr-positive transconjugand),0.5 µg/mL
same,MIC,"[23]; mutants of TCPs 123, SCV, median",> 32 µg/mL
same,MIC,"[23]; mutants of TCPs 123, normal colony size, median",6 µg/mL
same,MIC90,[24],2 µg/mL
same,MIC90,[11],~0.25 µg/mL
same,susceptibility category,[25]; BSAC,resistant
same,MIC,[26],≥ 16 µg/mL
same,intermediate susceptible,[13],2.4%
same,isolates with MPC ≤ 2 μg/ml,[27],79%
same,MPC range,[27]; 10 billion organisms on agar,1 to 4 µg/mL
same,MIC range,[27]; patients P1 and P2,0.031 to 1 µg/mL
C[C@@H](O)[C@H]1C(=O)N2C(C(=O)O)=C(SCCN=CN)C[C@H]12 [imipenem],per cent susceptible,[15],>99%
same,Susceptible isolates,[28]; ICU,96%
same,Susceptible isolates,[28]; non ICU,98%
same,resistance,[29],22.5%
same,resistance,[30],71.4%
same,MIC50,[31],0.5 µg/mL
same,MIC90,[31],2 µg/mL
same,strains with bactericidal activity (≥3 log10 cfu/ml decrease),[32],4 strains
same,per cent susceptible,[33],99%
same,MIC range,[2],0.004 to 32 µg/mL
same,MIC50,[2],1.5 µg/mL
same,MIC90,[2],> 32 µg/mL
same,per cent susceptible,[18],100%
same,% susceptible,[34]; A/P (N = 200),99%
same,% susceptible,[34]; EU (N = 354),98%
same,% susceptible,[34]; LA (N=113),98%
same,% susceptible,[34]; NA (N = 163),98%
same,resistance,[35],11.9%
same,susceptible strains (n/N),[36],15/16
same,Susceptible isolates,[5]; [50],99%
same,Susceptible isolates,[5]; non ICU,100%
same,Susceptible isolates,[6]; ICU,100%
same,Susceptible isolates,[6]; non ICU,99%
same,MIC,[37],> 32 µg/mL
same,resistant,[38],42%
same,resistant isolates,[8],0.0%
same,% S,[9],100%
same,%R,[9],0%
same,Susceptible isolates,[39]; ICU,100/100%
same,Susceptible isolates,[39]; non ICU,100/100%
same,MIC50,[40],1 µg/mL
same,MIC,[25]; Klebsiella pneumoniae,1 to 8 µg/mL
same,resistant,[13],0%
same,MIC50,[41],0.015 µg/mL
same,MIC90,[41],0.12 µg/mL
same,Susceptible isolates,[42],74-100%
COc1cccc(OC)c1C(=O)N[C@@H]1C(=O)N2[C@@H]1SC(C)(C)[C@@H]2C(=O)O [methicillin],resistant isolates,[43],35.8%
same,resistance,[44],37.1%
same,resistance,[45],86.5%
same,resistance,[46],47.4%
same,resistant isolates,[47],27.2%
same,resistant isolates,[48],41.4%
same,resistance,[49],86.7%
